Laboratory results: BindingDB's records for doi:10.1016/j.bmcl.2006.01.032 (Central Pharmaceutical Research Institute, 2006)

Experiment: Inhibition of HCV RNA replication in Huh5-2 cells after 48 hrs
`O=C(O)c1ccc2c(c1)nc(-c1ccc(OC(c3ccccc3)c3cccnc3)cc1F)n2C1CCCCC1` (stereo not given) [1-Cyclohexyl-2-[2-fluoro-4-(phenyl-pyridin-3-yl-methoxy)-phenyl]-1H-benzoimidazole-5-carboxylic acid] gave an EC50 of 1100 nM. `O=C(O)c1ccc2c(c1)nc(-c1ccc(OC(c3cccnc3)c3cccnc3)cc1F)n2C1CCCCC1` [1-Cyclohexyl-2-[4-(di-pyridin-3-yl-methoxy)-2-fluoro-phenyl]-1H-benzoimidazole-5-carboxylic acid] showed an EC50 of 2600 nM. In the case of `Cc1ccc(C(Oc2ccc(-c3nc4cc(C(=O)O)ccc4n3C3CCCCC3)cc2)c2ccc(C)cc2)cc1` [1-cyclohexyl-2-(4-(dip-tolylmethoxy)phenyl)-1H-benzo[d]imidazole-5-carboxylic acid], the EC50 is reported as 3700 nM. Compound `O=C(O)c1ccc2c(c1)nc(-c1ccc(OC(c3ccccc3)c3ccccc3)cc1F)n2C1CCCCC1` [2-(4-(benzhydryloxy)-2-fluorophenyl)-1-cyclohexyl-1H-benzo[d]imidazole-5-carboxylic acid] has an EC50 of 1900 nM. Work on `O=C(O)c1ccc2c(c1)nc(-c1ccc(OC(c3ccccc3)c3ccccc3)cc1)n2C1CCCCC1` [2-(4-(benzhydryloxy)phenyl)-1-cyclohexyl-1H-benzo[d]imidazole-5-carboxylic acid] yielded an EC50 of 2600 nM. In the case of `O=C(O)c1ccc2c(c1)nc(-c1ccc(OC(c3cccc(F)c3)c3cccc(F)c3)cc1)n2C1CCCCC1` [2-(4-(bis(3-fluorophenyl)methoxy)phenyl)-1-cyclohexyl-1H-benzo[d]imidazole-5-carboxylic acid], the EC50 is reported as 2800 nM. With `O=C(O)c1ccc2c(c1)nc(-c1ccc(OC(c3ccc(Cl)cc3)c3ccc(Cl)cc3)cc1)n2C1CCCCC1` [2-(4-(bis(4-chlorophenyl)methoxy)phenyl)-1-cyclohexyl-1H-benzo[d]imidazole-5-carboxylic acid] the EC50 was 3600 nM. For `O=C(O)c1ccc2c(c1)nc(-c1ccc(OC(c3ccc(F)cc3)c3ccc(F)cc3)cc1F)n2C1CCCCC1` [2-(4-(bis(4-fluorophenyl)methoxy)-2-fluorophenyl)-1-cyclohexyl-1H-benzo[d]imidazole-5-carboxylic acid], the EC50 was 1600 nM. `O=C(O)c1ccc2c(c1)nc(-c1ccc(OC(c3ccc(F)cc3)c3ccc(F)cc3)cc1)n2C1CCCCC1` [2-(4-(bis(4-fluorophenyl)methoxy)phenyl)-1-cyclohexyl-1H-benzo[d]imidazole-5-carboxylic acid] gave an EC50 of 2200 nM. `CN(C)C(=O)c1ccc(C(Oc2ccc(-c3nc4cc(C(=O)O)ccc4n3C3CCCCC3)c(F)c2)c2ccc(C(=O)N(C)C)cc2)cc1` [2-{4-[Bis-(4-dimethylcarbamoyl-phenyl)-methoxy]-2-fluoro-phenyl}-1-cyclohexyl-1H-benzoimidazole-5-carboxylic acid] showed an EC50 of 1200 nM.
